Data on one molecule can be found in patent publication US8415106B2, “Cell-based screen for agents useful for reducing neuronal demyelination or promoting neuronal remyelination” (Myelin Repair Foundation, Inc., priority 2005, dated 2013).

The subject of experiment [1] is myelin basic protein (MBP). The experiment can be described thus: Hippocampal organotypic cultures (HOC), in vitro model of myelination, MBP Western blot. The experiment is classed as cell-based. To be noted: 7 days. As for the experimental part:
HOCs, were prepared and maintained as described previously (Kunkler and Kraig (1997) J Cereb Blood Flow Metab. 17:26-43), and were maintained in vitro for 7 days before use. SAL at various concentrations was combined with 100 U/ml IFN-γ and added to the HOC cultures for 7 days. […] After 7 days of 100 U/ml IFN-γ exposure, the levels of MBP decreased approximately 80% in the HOCs (FIG. 29).
Background: Immunoblotting shows a protein as a band on a membrane.

In experiment [2] the test system is PP1-GADD34 phosphatase. To be noted: Boyce, et al. (2005) Science 307:935-939; cited from earlier work.

For the molecule `O=C(/C=C/c1ccccc1)NC(NC(=S)Nc1cccc2cccnc12)C(Cl)(Cl)Cl` (stereo not drawn) [SAL, salubrinal], the “reduction of MBP expression elicited by IFN-γ exposure” value in experiment [1] (SAL at various concentrations combined with 100 U/ml IFN-γ) is “markedly attenuated”. The MBP expression entry in experiment [1] (SAL treatment alone) is reported as “did not affect MBP expression”. In experiment [2], the PP1-GADD34 phosphatase activity entry was “specifically inhibits the PP1-GADD34 phosphatase activity”.
